Source: patent publication US7312336B2, “Compounds with analgesic effect” (AstraZeneca Canada Inc., priority 1996, dated 2007)
Counter-ions that a name gives are not always drawn.

Experiments:
δ receptor = δ receptor (Homo sapiens, UniProt P41143); details: background statement; cited from earlier work
[1] = background statement; cited from earlier work

δ receptor, sequence (P41143 whole entry): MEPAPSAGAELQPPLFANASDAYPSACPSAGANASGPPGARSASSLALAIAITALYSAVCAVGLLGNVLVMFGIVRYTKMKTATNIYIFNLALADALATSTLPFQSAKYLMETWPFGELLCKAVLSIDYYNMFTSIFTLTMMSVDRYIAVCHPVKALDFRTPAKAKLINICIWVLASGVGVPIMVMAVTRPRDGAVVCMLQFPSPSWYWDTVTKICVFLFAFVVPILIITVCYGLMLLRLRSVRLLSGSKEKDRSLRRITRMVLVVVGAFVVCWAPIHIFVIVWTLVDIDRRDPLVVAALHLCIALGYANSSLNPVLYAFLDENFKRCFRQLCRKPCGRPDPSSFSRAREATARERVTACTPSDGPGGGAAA

With `CCN(CC)C(=O)c1ccc(C(=C2CCN(C3CCCCC3)CC2)c2ccccc2)cc1` (as salt: HCl) the melting point was 105 to 109 °C.
Compound `CCN(CC)C(=O)c1ccc(C(O)(c2cccc3cccnc23)C2CCN(C(=O)OC(C)(C)C)CC2)cc1` (stereo not drawn) has a melting point of 100 to 105 °C.
With `CCN(CC)C(=O)c1ccc(C(=C2CCN(Cc3ccccc3)CC2)c2cccc(OC)c2)cc1` (as salt: HCl) the melting point was 100 to 110 °C.
With `CCN(CC)C(=O)c1ccc(C(=C2CCNCC2)c2cccc3cccnc23)cc1` (as salt: HCl) the melting point was > 170 °C (dec.).
In the case of `CCN(CC)C(=O)c1ccc(C(=C2CCN(Cc3ccc(OC)cc3)CC2)c2ccccc2)cc1` (as salt: HCl), the melting point is reported as 100 to 110 °C.
Compound `CCN(CC)C(=O)c1ccc(C(=C2CCN(Cc3ccc(Cl)cc3Cl)CC2)c2ccccc2)cc1` (as salt: HCl) has a melting point of 95 to 110 °C.
In the case of `CCN(CC)C(=O)c1ccc(C(O)(c2cccc(OC)c2)C2CCN(C(=O)OC(C)(C)C)CC2)cc1` (stereo not drawn), the melting point is reported as 95 to 103 °C.
In the case of `CCN(CC)C(=O)c1ccc(C(=C2CCNCC2)c2cccc(OC)c2)cc1` (as salt: HCl), the melting point is reported as > 90 °C (dec.).
In the case of `Oc1ccc2c3c1O[C@H]1c4[nH]c5ccccc5c4C[C@@]4(O)[C@@H](C2)N(CC2CC2)CC[C@]314` [naltrindole], the “selectivity for the δ receptor vs. μ receptor binding” value (δ receptor) is given as under 10 fold and the analgesic activity [1] is given as “no analgesic activity”.
`CCN(CC)C(=O)c1ccc(C(=C2CCN(Cc3ccccc3)CC2)c2ccccc2)cc1` (as salt: HCl) showed a melting point of 230 to 245 °C.
`CCN(CC)C(=O)c1ccc(C(=C2CCN(Cc3ccccc3)CC2)c2ccc(Cl)cc2)cc1` (as salt: salt) gave a melting point of 100 to 110 °C.
